Measurements taken from patent publication US6653478B2, “Substituted benzimidazol-2-ones as vasopressin receptor antagonists and neuropeptide Y modulators” (Ortho-McNeil Pharmaceutical, Inc., priority 2000, dated 2003).
Structures can show the parent of a compound that is named as a salt.

Assays:
human V1a receptor = human V1a receptor (Homo sapiens, UniProt P37288); assay: V1a functional assay, intracellular calcium mobilization in transfected HEK-293 cells (FLIPR); design: expressed in transfected cells; host or cells: HEK-293; conditions: challenge 1 nM AVP; read-out: Cell-Based Functional activity V1a IC50
Sequence of human V1a receptor (P37288 whole entry): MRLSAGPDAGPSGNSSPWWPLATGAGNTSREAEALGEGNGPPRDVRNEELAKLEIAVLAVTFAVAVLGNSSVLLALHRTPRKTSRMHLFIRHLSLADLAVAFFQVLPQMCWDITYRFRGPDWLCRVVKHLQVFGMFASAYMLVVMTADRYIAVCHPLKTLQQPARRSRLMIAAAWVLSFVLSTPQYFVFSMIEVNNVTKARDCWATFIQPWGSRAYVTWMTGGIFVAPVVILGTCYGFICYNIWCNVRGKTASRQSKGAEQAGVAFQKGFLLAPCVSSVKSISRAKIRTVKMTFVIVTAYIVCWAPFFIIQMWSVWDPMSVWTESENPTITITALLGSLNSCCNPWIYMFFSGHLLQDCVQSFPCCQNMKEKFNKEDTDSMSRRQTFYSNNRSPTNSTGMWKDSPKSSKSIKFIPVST
Protocol: (§1) V1a, V1b or V2 Functional Assay
(§2) HEK-293 cells were grown in DMEM media supplemented with 10% FBS and glutamine (Gibco BRL, Grand Island, N.Y.). Once transfected the cells were passed biweekly by trypsinization and seeded into 96 well plates at 33,000 cells per well. HEK-293 were transfected with human V1a, V1b or V2 DNA using DMRIE-C reagent from Life Technologies, Inc., Grand Island, N.Y. Cells were tested for their responsiveness to vasopressin 48 hours after transfection. Stable lines were generated by selecting cells grown in culture media containing geneticin (500 μg/ml, Life Technologies).
Intracellular calcium mobilization was measured in HEK-293 cells transfected to express either human V1a, oxytocin or V1b receptors. Cells were plated into black 96-well Packard Clear-View plates 4 to 7 days prior to use. The cells were loaded with fluo-3 AM (Molecular Probes, Inc., Eugene, Oreg.) in buffer (25 mM Hepes, 125 mM NaCl, 1 gm/l glucose, 0.1% BSA, 5 mM KCl, 0.5 mM CaCl2, 0.5 mM MgCl2, pH 7.45) containing Pluronic (Molecular Probes) Cells were incubated with 5 μM fluo-3 AM for 1 hour shielded from light at room temperature. Intracellular fluorescence was measured using FLIPR (fluorometric imaging plate reader; Molecular Devices, Inc., Sunnyvale, Calif.). The FLIPR protocol called for images to be collected at one second intervals with 50 μl of the test compound added after the initial 10 images. An additional 70 images were then taken to detect any compound agonistic activity. FLIPR then added 50 μl of agonist peptide and collected a final 40 images for quantitating compound antagonistic activity. V1a- and V1b-expressing HEK cells were challenged with 1 nM and 0.5 nM AVP, respectively. Oxytocin-expressing HEK cells were challenged with 0.5 nM oxytocin (Peninsula Labs).
(§3) The data from the cAMP accumulation and the calcium mobilization assays are expressed as IC50 values as determined from dose response curves.

human V2 receptor = human V2 receptor (Homo sapiens, UniProt P30518); assay: V2 functional assay, cAMP accumulation in transfected HEK-293 cells; type: cell-based; design: expressed in transfected cells; host or cells: HEK-293; conditions: for IC50: AVP 1 nM, read-out: Cell-Based Functional activity V2 IC50
Protocol: as §1, §2
The accumulation of cAMP was measured in transfected HEK-293 expressing the human V2 receptor. The cells were cultured 4-7 days in 96-well plates. On the day of assay, cells were washed twice in assay media (DMEM/F12 containing 0.1% BSA). The cells were treated with the test compound for 5 minutes and then given AVP (1 nM) in assay media containing 1 mM isobutylmethylxanthine. After 5 minutes, 0.5 N HCl was added to disrupt the cells and solubilize cAMP. The cAMP content of 20 μl of the cell lysate in each well was measured using cAMP Flashplates (NEN Life Sciences). Data are expressed as pmol cAMP/well. While the assay is optimized to detect and quantitate antagonistic activity, agonistic activity would also be apparent at the higher concentrations of test compounds.
as §3

| Compound | IC50 (human V1a receptor) | Cell-Based Functional activity V2 % Inh. @ 30 (human V2 receptor; 30 μM compound) | IC50 (human V2 receptor) | inhibition at 10 µM (human V2 receptor; HEK293, 10 μM compound, read-out: Cell-Based Functional activity V2 % Inh. @ 10) | inhibition at 30 µM (human V2 receptor; HEK293, 30 μM compound, read-out: Cell-Based Functional activity V2 % Inh. @ 30) |
| --- | --- | --- | --- | --- | --- |
| 1-[(N1-Piperidinocarbothioyl-(1-L-carboxymethyl-2-phenylamino)-4-yl]-3-(3-aminopropyl)-1,3-dihydrobenzimidazol-2-one Hydrochloride [Compound 57] | 482 nM | 0% @ 30 |  |  |  |
| CCN(CC)CCn1c(=O)n(C2CCN(C(=S)NC(c3ccccc3)c3ccccc3)CC2)c2ccccc21 [Compound 35, 1-(N1-Piperidinocarbothioyldiphenylmethylamino-4-yl)-3-(2-diethyaminoethyl)-1,3-dihydrobenzimidazol-2-one] | 458 nM |  | 623 nM |  |  |
| CCN(CC)CCn1c(=O)n(C2CCN(C(=S)NC(Cc3ccccc3)C(=O)OC)CC2)c2ccccc21 [Compound 42, 1-(N1-Piperidinocarbothioyl-(2-phenyl-1-L-carboxymethyl)amino-4-yl)-3-(2-diethyaminoethyl)-1,3-dihydrobenzimidazol-2-one] | 810 nM |  |  | 0% |  |
| NCCCn1c(=O)n(C2CCN(C(=S)NC(c3ccccc3)c3ccccc3)CC2)c2ccccc21 [Compound 55, 1-[(N1-Piperidinocarbothioyldiphenylmethylamino)-4-yl]-3-(3-aminopropyl)-1,3-dihydrobenzimidazol-2-one Monohydrochloride] | 139 nM |  | 22800 nM |  |  |
| N=C(N)NCCCn1c(=O)n(C2CCN(C(=S)NC(c3ccccc3)c3ccccc3)CC2)c2ccccc21 [Compound 59, 1-[(N1-Piperidinocarbothioyldiphenylmethylamino)-4-yl]-3-(3-guanidinopropyl)-1,3-dihydrobenzimidazol-2-one] | 240 nM |  |  |  | 0% |
